Results on six substances are retold here after patent US20030088057A1, “PEPTIDE SUBSTRATES PHOSPHORYLATED BY P21-ACTIVAGED PROTEIN KINASE STATEMENT REGARDING FEDERALLY SPONSORED REASEARCH OR DEVELOPMENT” (priority 1998, published 2003).

Read-outs that look alike come from different tables or passages of the source. No end group written: not given here.

Test [1] has as its system γ-PAK. Description: Rates of phosphorylation of synthetic peptides by γ-PAK. The format is biochemical, rabbit. Particulars: for 32P incorporated, %: AKRASAA taken as 100%; for rate of phosphorylation compared to AKRASAA: relative to AKRASAA; for substrate for γ-PAK (in words): synthetic peptides. An excerpt: (§1) A. Materials. γ-PAK was purified from rabbit reticulocytes to apparent homogeneity by chromatography on DEAE-cellulose, SP-Sepharose, protamine agarose, and FPLC on Mono S and Mono Q. Histone I (type IIIS), mixed histone (type IIAS), trypsin (L-1-tosylamido-2-phenylethyl chloromethyl ketone treated), soybean trypsin inhibitor, bovine serum albumin (fatty acid free), and myelin basic protein were purchased from Sigma. Purified histones 2B and 4 were purchased from Boehringer-Mannheim. Myosin light chain from rabbit skeletal muscle was a gift from Dr. James Stull, University of Texas Southwestern Medical Center, Dallas, Tex.; rat prolactin was provided by Dr. Ameae Walker, University of California, Riverside, Calif.; and the purified catalytic subunit of cAMP-dependent protein kinase from bovine heart was a gift from Dr. William H. Fletcher, J. L. Pettis Memorial V. A. Hospital, Loma Linda, Calif. Protein kinase C was purified from bovine brain according to the procedure of Walton et al. [Walton, G. M., et al., Anal Biochem., 161:425-437 (1987)], with modifications [Venema, R. C., et al., J. Biol. Chem., 266:5298-5302 (1991)]. The clone for GST-Cdc42 was generously provided by Dr. Channing Der, University of North Carolina, Chapel Hill, N.C. Cellulose thin-layer chromatography sheets were from Kodak.
D. Phosphorylation Assays. Phosphorylation of protein substrates was carried out in 35 μL reaction mixtures containing 20 mM Tris-HCl, pH 7.4, 10 mM MgCl2, 30 mM 2-mercaptoethanol, 0.2 mM ATP (specific activity =1000 cpm/pmol), 2 μg of protein substrate, and 20 units of active γ-PAK (an enzyme unit is defined as the amount of enzyme that incorporates 1 pmol of phosphate into histone IIAS/ min at 30°. Under these conditions, phosphate incorporation was linear and initial rates of phosphorylation were measured. After incubation at 30° C. for 15 min, reactions were terminated by the addition of 5 μL of 100 mM nonlabeled ATP and sample buffer for gel electrophoresis [Hathaway, G. M., et al., Methods Enzymol., 60:495-511 (1979)]. Reaction mixtures were subjected to SDS-PAGE on 15% polyacrylamide gels followed by autoradiography. Phosphorylation was quantified by excising the protein band and counting the incorporated ^32P in a liquid scintillation counter. The specific activity of γ-PAK was 400 pmol min^−1 μg^−1 as reported previously using 0.2 mM ATP and 1 mg/mL mixed histone as substrate [Rooney, R. D., et al., (1996), supra].
(§2) Assays with peptides (I mM) were carried out with γ-PAK (1.6-5.6 units) in 25 μL reaction mixtures incubated for 30 min at 30° C. under conditions described above, except that 0.4 mg/mL of bovine serum albumin was added and the specific activity of ATP was 300-2000 cpm/pmol. Reactions were terminated with 5 μL of 100 mM ATP, and the amount of ^32p incorporated was quantitated by precipitation of 20 μL aliquots on P81 phosphocellulose paper with 75 mM H3PO4 as described previously [Bensen, E. S., et al., Biochim. Biophys. Acta, 1292:249-258 (1996)]. Peptides containing only one basic amino acid were analyzed by thin-layer electrophoresis on cellulose sheets for 2 h at 600 V with pyridine/acetic acid/water (10:100:890), pH 3.5, as solvent, as described previously [Bensen, E. S., et al., supra]. Activation of γ-PAK by autophosphorylation in the presence of Cdc42(GTPγS) was performed as previously described [Jakobi, R., et al., supra]. γ-PAK was also activated by limited digestion with trypsin as described previously [Rooney, R. D., et al., (1996), supra].

For test [2], the system named is γ-PAK. The experiment in a line: Kinetic parameters (Km, Vmax) for phosphorylation of synthetic peptides by γ-PAK. The format is biochemical, rabbit. Particulars: for Km: read-out: Km. The procedure:
as §2

The next test has as its system PKC. The experiment in a line: Rates of phosphorylation of synthetic peptides by PKC. The class given is biochemical, bovine. The following applies: for 32P incorporated: PKC (3.4 units), with Ca2+ and phospholipids, 0.14 mM ATP; for 32P incorporated, %: PKC, AKRASAA taken as 100%.
Excerpt: as §1
(§3) Reactions with PKA (10.5 units) were carried out under the same conditions as with γ-PAK except that 0.14 mM ATP was used. Reactions with PKC (3.4 units) were performed as with PKA, with the addition of 0.4 mM CaCl2, phosphatidylinositol (15 μg/mL), phosphatidylserine (15 μg/ mL), and 1,2-diolein (3 μg/mL), as described [Tuazon, P. T., et al., (1989), supra]. A unit of PKA or PKC is defined as the amount of enzyme that incorporates 1 pmol of phosphate/min at 30° C. into histone IIAS or histone 1, respectively.
PKA and PKC are known to require basic amino acids on the N-terminal side of the phosphorylatable serine/ threonine. To distinguish their substrate specificities from that of γ-PAK, the relative rates of phosphorylation were determined with the synthetic peptide substrates using the conditions for γ-PAK, with the addition of Ca^2+ and phospholipids for PKC. The rates shown in Table 5 are calculated with equivalent units of enzyme; the rate of phosphorylation of the peptide AKRASAA (SEQ ID NO:6) is taken as 100% for all three enzymes. As would be expected, PKA preferentially phosphorylated the peptides that contained RR or RK at the −3 and −2 positions and with […] residues or proline at the −4 and −1 positions inhibitory. PKC recognized SKR>RKS>KKS. The most notable difference between γ-PAK and PKA or PKC is the effect of acidic residues on the susceptibility of the peptide to be phosphorylated. An acidic residue in the −1 or −4 position was beneficial for γ-PAK but was detrimental for both PKA and PKC (Table 5). […] In addition, γ-PAK could not tolerate an arginine in the −3 position when lysine was in the −2 position.

The target in the next test is T1, PKA (Bos taurus, UniProt P00517).
T1 construct: the purified catalytic subunit of cAMP-dependent protein kinase from bovine heart was a gift; from tissue; host or cells: bovine heart (gift from Dr. William H. Fletcher)
Description: Rates of phosphorylation of synthetic peptides by PKA. The format is biochemical, bovine. The following applies: for 32P incorporated: PKA (10.5 units), 0.14 mM ATP; for 32P incorporated, %: PKA, AKRASAA taken as 100%.
Excerpt: as §1, with “Myosin light chain from rabbit skeletal muscle was a gift from Dr. James Stull, University of Texas Southwestern Medical Center, Dallas, Tex.; rat prolactin was provided by Dr. Ameae Walker, University of California, Riverside, Calif.; and the purified catalytic subunit of cAMP-dependent protein kinase from bovine heart was a gift from Dr. William H. Fletcher, J. L. Pettis Memorial V. A. Hospital, Loma Linda, Calif.” left out
as §3
PKA and PKC are known to require basic amino acids on the N-terminal side of the phosphorylatable serine/ threonine. To distinguish their substrate specificities from that of γ-PAK, the relative rates of phosphorylation were determined with the synthetic peptide substrates using the conditions for γ-PAK, with the addition of Ca^2+ and phospholipids for PKC.

[3] abbreviates: Cdc42(GTPγS)-activated γ-PAK, peptide 1 mM, KKRKSAA = 100.
[4] abbreviates: proteolytically (trypsin) activated γ-PAK, peptide 1 mM, compared to KKRKSAA = 100.
Setting [5] is: proteolytically activated γ-PAK (5.6 units), peptide 1 mM, 30 min at 30° C.
Where [6] appears, read: γ-PAK, calculated with equivalent units of enzyme.
Where [7] appears, read: Table 2, influence of basic amino acids, γ-PAK 1.6 units, ATP 0.2 mM.
Where [8] appears, read: Table 3, influence of acidic amino acids.
Setting [9] is: Table 4, influence of proline and glycine.

Sequence of γ-PAK (Q29502 249-500 limits assumed): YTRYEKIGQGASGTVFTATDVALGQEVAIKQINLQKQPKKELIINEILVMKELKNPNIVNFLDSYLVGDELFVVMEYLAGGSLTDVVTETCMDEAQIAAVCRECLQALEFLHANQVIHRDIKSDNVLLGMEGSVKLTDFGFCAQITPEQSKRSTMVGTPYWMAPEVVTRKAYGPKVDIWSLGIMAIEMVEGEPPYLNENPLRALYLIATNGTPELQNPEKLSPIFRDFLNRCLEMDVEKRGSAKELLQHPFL

The Km is the concentration of substrate that gives half-maximal velocity. Turning to “AKRASAA (AKRASAA-NH2) [synthetic peptide with an amide C-terminal group]”, the “rel rate (%)” value was 189% with γ-PAK [1] (setting [3]) and 141% with γ-PAK [1] (setting [4]). The 32P incorporated in the test with γ-PAK [1] (setting [5]) is 426 pmol/min/µg; with γ-PAK [1] (setting [6]) it was 26.8 pmol/unit; with PKC it was 3.0 pmol/unit; in the test with PKA, 4.8 pmol/unit. In addition, the “32P incorporated, %” value with γ-PAK [1] (γ-PAK), in the test on PKC and with PKA was 100% in each case. The Vmax is listed as 1.04 pmol/min in the test with γ-PAK [2] (setting [7]), 11.04 pmol/min with γ-PAK [2] (setting [8]) and 1.04 pmol/min with γ-PAK [2] (setting [9]). Also, the Michaelis constant (Km) in the test with γ-PAK [2] (setting [7]), with γ-PAK [2] (setting [8]) and with γ-PAK [2] (setting [9]) was 460 µM throughout.

“AKRASEA (AKRASEA-NH2) [synthetic peptide with an amide C-terminal group]”: the “rel rate (%)” value with γ-PAK [1] (setting [3]) is reported as 88%; in the test with γ-PAK [1] (setting [4]), 108%. The 32P incorporated with γ-PAK [1] (setting [5]) was 326 pmol/min/µg; in the test with γ-PAK [1] (setting [6]), 18.3 pmol/unit; in the test with PKC, 0.2 pmol/unit; with PKA it was 3.6 pmol/unit. For the same substance, the “32P incorporated, %” value is reported as 68% in the test on γ-PAK [1] (γ-PAK), 6% with PKC and 75% with PKA. In addition, the “rate of phosphorylation compared to AKRASAA” value in the test on γ-PAK [1] (γ-PAK) came to 71%. The “increase of Km compared to AKRASAA” value with γ-PAK [2] is about 3 fold. Further, in the test with γ-PAK [2], the “overall rate of phosphorylation (Vmax/Km) compared to AKRASAA” value turned out to be 0.7 fold. In the test with γ-PAK [2] (setting [8]), the Vmax came to 2.22 pmol/min. In the test on γ-PAK [2] (setting [8]), the Km was found to be 1420 µM.

In the case of “ARRASAA (ARRASAA-NH2) [synthetic peptide with an amide C-terminal group]”, the “rel rate (%)” value in the test on γ-PAK [1] (setting [3]) is 134%; in the test on γ-PAK [1] (setting [4]), 129%. The 32P incorporated in the test with γ-PAK [1] (setting [5]) is 391 pmol/min/µg; in the test on γ-PAK [1] (setting [6]), 25.0 pmol/unit; with PKC it was 18.8 pmol/unit. For the same substance, in the test with γ-PAK [1], the “substrate for γ-PAK (in words)” value was “as good a substrate as AKRASAA”. The entries for the “32P incorporated, %” value in the test with γ-PAK [1] (γ-PAK) and in the test on PKC were 93% and 570%, respectively. In addition, the Vmax in the test with γ-PAK [2] (setting [7]) came to 2.11 pmol/min. Moreover, the Km with γ-PAK [2] (setting [7]) amounted to 650 µM.

Turning to “EKRASAA (EKRASAA-NH2) [synthetic peptide with an amide C-terminal group]”, the results for the “rel rate (%)” value in the test with γ-PAK [1] (setting [3]) and with γ-PAK [1] (setting [4]) were 151% and 160%, respectively. Moreover, the 32P incorporated is 484 pmol/min/µg with γ-PAK [1] (setting [5]), 30.2 pmol/unit in the test on γ-PAK [1] (setting [6]), 0.1 pmol/unit with PKC and 1.7 pmol/unit with PKA. Besides, the “32P incorporated, %” value with γ-PAK [1] (γ-PAK) amounted to 113%; in the test with PKC, 3%; in the test with PKA it was 4%. In addition, the “rate of phosphorylation compared to AKRASAA” value in the test with γ-PAK [1] (γ-PAK) amounted to 113%. The “increase of Km compared to AKRASAA” value in the test with γ-PAK [2] turned out to be 2 fold. In the test on γ-PAK [2], the “overall rate of phosphorylation (Vmax/Km) compared to AKRASAA” value is 1.3 fold. The Vmax in the test on γ-PAK [2] (setting [8]) and with γ-PAK [2] (text summary b32) was 2.48 pmol/min throughout. In addition, in the test on γ-PAK [2] (setting [8]), the Km was 890 µM.

Regarding “KKRKSAA [model peptide patterned after the phosphorylation site of nucleocapsid protein NC]”, the “rel rate (%)” value with γ-PAK [1] (setting [3]) and with γ-PAK [1] (setting [4]) was 100% throughout. For the same substance, the 32P incorporated with γ-PAK [1] (setting [5]) was 302 pmol/min/µg; with γ-PAK [1] (setting [6]), 19.2 pmol/unit; with PKC it was 11.1 pmol/unit. Moreover, the “32P incorporated, %” value came out at 72% in the test with γ-PAK [1] (γ-PAK) and 370% in the test on PKC. Besides, the Vmax in the test with γ-PAK [2] (setting [7]) was 1.84 pmol/min; with γ-PAK [2] (text b67, b73), 302 pmol/min/µg. For the same substance, the Km in the test with γ-PAK [2] (setting [7]) amounted to 610 µM.

Consider “RKKKSAA (RKKKSAA-NH2) [synthetic peptide with an amide C-terminal group]”, for which the figures for the “rel rate (%)” value with γ-PAK [1] (setting [3]) and with γ-PAK [1] (setting [4]) were 3% and 0%, respectively. The 32P incorporated with γ-PAK [1] (setting [5]) was 0 pmol/min/µg; in the test with γ-PAK [1] (setting [6]), 0.1 pmol/unit; in the test with PKC, 3.1 pmol/unit; with PKA, 5.4 pmol/unit. In addition, the “substrate for γ-PAK (in words)” value in the test on γ-PAK [1] is on record as “poor substrates”. Also, the “32P incorporated, %” value came to 0% in the test on γ-PAK [1] (γ-PAK) and 94% in the test on PKC.
